The NIST ThermoML archive (doi:10.1016/j.fluid.2005.09.011)

Settings: Liquid; for mass density: 101.33 kPa

FC(F)C(F)(F)C(F)(F)C(F)(F)C(F)(F)C(F)(F)C(F)(F)C(F)F [1,1,2,2,3,3,4,4,5,5,6,6,7,7,8,8-hexadecafluorooctane]
Settings | mass density [kg/m3] | vapor or sublimation pressure [kPa]
288.15 K | 1775.3 | –
289.31 K | – | 0.55
293.15 K | 1764.4 | –
293.26 K | – | 0.75
298.15 K | 1753.4 | –
298.2 K | – | 0.99
303.15 K | 1742.4 | –
303.18 K | – | 1.43
308.15 K | 1731.3 | –
308.17 K | – | 1.92
313.15 K | 1720.2 | –
313.18 K | – | 2.49
318.14 K | – | 3.12
323.15 K | – | 4.07
328.15 K | – | 5.26
333.14 K | – | 6.64
